Source: patent publication US8076487B2, “Pyridone derivative and herbicide” (Kumiai Chemical Industry Co., Ltd., priority 2006, dated 2011)

How the values were obtained:
Assay type in all cases: in vivo
[1] = test system: slender amaranth (Amaranthus viridis L.); experiment: Test Example 3: herbicidal effect by application to upland field (foliage treatment); conditions: foliage treatment, 1,000 g active ingredient per 1 hectare, 14th day after application, greenhouse
How it was run: (§1)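 Upland foliage test in greenhouse pots of field soil: seedlings sprayed at two weeks post-sowing with 1,000 g/ha active ingredient (wettable powder, 1,000 L water/ha). Scored 14 d after application.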

[2] = test system: barnyardgrass (Echinochloa crus-galli (L.) P. Beauv. var. crus-galli); experiment: as above; conditions: foliage treatment, 1,000 g active ingredient per 1 hectare, 14th day after application, greenhouse
How it was run: as §1

[3] = test system: velvetleaf (Abutilon theophrasti medicus); experiment: as above; conditions: foliage treatment, 1,000 g active ingredient per 1 hectare, 14th day after application, greenhouse
How it was run: as §1

[4] = test system: green foxtail (Setaria viridis (L.) P. Beauv.); experiment: as above; conditions: foliage treatment, 1,000 g active ingredient per 1 hectare, 14th day after application, greenhouse
How it was run: as §1

[5] = test system: Japanese bulrush (Scirpus juncoides Roxb.); experiment: Test Example 1: herbicidal effect by soil application to paddy field; conditions: paddy field soil application; active ingredient 1,000 g per 1 hectare; wettable powder added dropwise to water surface the day after sowing; examined on the 21st day after application
How it was run: (§2)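 Plants were sown in flooded (3 cm) paddy soil and evaluated for herbicidal effect 21 days after soil application in a greenhouse.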

[6] = test system: early watergrass (Echinochloa oryzicola Vasing); experiment: as above; conditions: paddy field soil application; active ingredient 1,000 g per 1 hectare; wettable powder added dropwise to water surface the day after sowing; examined on the 21st day after application
How it was run: as §2

[7] = test system: heartshape false pickerelweed (Monochoria vaginalis (Burm.f.) C.Presl); experiment: as above; conditions: paddy field soil application; active ingredient 1,000 g per 1 hectare; wettable powder added dropwise to water surface the day after sowing; examined on the 21st day after application
How it was run: as §2

Compound	herbicidal effect, Slender Amaranth [1]	herbicidal effect, Barnyardgrass [2]	herbicidal effect, Velvetleaf [3]	herbicidal effect, Green Foxtail [4]	herbicidal effect, Scirpus juncoides Roxb. [5]	herbicidal effect, Echinochloa oryzicola Vasing [6]	herbicidal effect, Monochoria vaginalis (Burm. f.) C. Presl [7]
CCC(C)n1c(C(F)(F)F)ccc(C(=O)C2=C(O)C3CCC(C3)C2=O)c1=O (stereo not shown) [III-8]	3 (50 to less than 70% of herbicidal effect and crop phytotoxicity)	5 (90% or more of herbicidal effect and crop phytotoxicity)	5 (90% or more of herbicidal effect and crop phytotoxicity)	5 (90% or more of herbicidal effect and crop phytotoxicity)	5 (90% or more of herbicidal effect and crop phytotoxicity)	5 (90% or more of herbicidal effect and crop phytotoxicity)	5 (90% or more of herbicidal effect and crop phytotoxicity)
CSCCCn1c(C(F)(F)F)ccc(C(=O)C2=C(O)C3CCC(C3)C2=O)c1=O (stereo not shown) [III-31]	5 (90% or more of herbicidal effect and crop phytotoxicity)	5 (90% or more of herbicidal effect and crop phytotoxicity)	5 (90% or more of herbicidal effect and crop phytotoxicity)	5 (90% or more of herbicidal effect and crop phytotoxicity)	5 (90% or more of herbicidal effect and crop phytotoxicity)	5 (90% or more of herbicidal effect and crop phytotoxicity)	5 (90% or more of herbicidal effect and crop phytotoxicity)
O=C(C1=C(O)C2C=CC(C2)C1=O)c1ccc(C(F)(F)F)n(CC2CCCO2)c1=O (stereo not shown) [III-43]	5 (90% or more of herbicidal effect and crop phytotoxicity)	5 (90% or more of herbicidal effect and crop phytotoxicity)	5 (90% or more of herbicidal effect and crop phytotoxicity)	3 (50 to less than 70% of herbicidal effect and crop phytotoxicity)	5 (90% or more of herbicidal effect and crop phytotoxicity)	5 (90% or more of herbicidal effect and crop phytotoxicity)	5 (90% or more of herbicidal effect and crop phytotoxicity)
COCC(C)n1c(C(F)(F)F)ccc(C(=O)C2=C(O)C3C=CC(C3)C2=O)c1=O (stereo not shown) [III-44]	5 (90% or more of herbicidal effect and crop phytotoxicity)	4 (70 to less than 90% of herbicidal effect and crop phytotoxicity)	5 (90% or more of herbicidal effect and crop phytotoxicity)	5 (90% or more of herbicidal effect and crop phytotoxicity)	5 (90% or more of herbicidal effect and crop phytotoxicity)	5 (90% or more of herbicidal effect and crop phytotoxicity)	5 (90% or more of herbicidal effect and crop phytotoxicity)
C=CCn1c(C(F)(F)F)ccc(C(=O)c2cnn(CC)c2OS(=O)(=O)CCC)c1=O [IV-12]	5 (90% or more of herbicidal effect and crop phytotoxicity)	5 (90% or more of herbicidal effect and crop phytotoxicity)	5 (90% or more of herbicidal effect and crop phytotoxicity)	4 (70 to less than 90% of herbicidal effect and crop phytotoxicity)	5 (90% or more of herbicidal effect and crop phytotoxicity)	5 (90% or more of herbicidal effect and crop phytotoxicity)	5 (90% or more of herbicidal effect and crop phytotoxicity)
C=C(C)Cn1c(C(F)(F)F)ccc(C(=O)c2cnn(C)c2O)c1=O [IV-13]	5 (90% or more of herbicidal effect and crop phytotoxicity)	5 (90% or more of herbicidal effect and crop phytotoxicity)	5 (90% or more of herbicidal effect and crop phytotoxicity)	5 (90% or more of herbicidal effect and crop phytotoxicity)	5 (90% or more of herbicidal effect and crop phytotoxicity)	5 (90% or more of herbicidal effect and crop phytotoxicity)	5 (90% or more of herbicidal effect and crop phytotoxicity)
CC(C)=CCCn1c(C(F)(F)F)ccc(C(=O)c2cnn(C)c2O)c1=O [IV-15]	5 (90% or more of herbicidal effect and crop phytotoxicity)	4 (70 to less than 90% of herbicidal effect and crop phytotoxicity)	5 (90% or more of herbicidal effect and crop phytotoxicity)	5 (90% or more of herbicidal effect and crop phytotoxicity)	5 (90% or more of herbicidal effect and crop phytotoxicity)	5 (90% or more of herbicidal effect and crop phytotoxicity)	5 (90% or more of herbicidal effect and crop phytotoxicity)
Cn1ncc(C(=O)c2ccc(C(F)(F)F)n(CCC[S+](C)[O-])c2=O)c1O (stereo not shown) [IV-58]	5 (90% or more of herbicidal effect and crop phytotoxicity)	5 (90% or more of herbicidal effect and crop phytotoxicity)	4 (70 to less than 90% of herbicidal effect and crop phytotoxicity)	4 (70 to less than 90% of herbicidal effect and crop phytotoxicity)	4 (70 to less than 90% of herbicidal effect and crop phytotoxicity)	5 (90% or more of herbicidal effect and crop phytotoxicity)	4 (70 to less than 90% of herbicidal effect and crop phytotoxicity)
Cn1ncc(C(=O)c2ccc(C(F)(F)F)n(-c3ccc(Cl)cc3)c2=O)c1O [IV-63]	5 (90% or more of herbicidal effect and crop phytotoxicity)	4 (70 to less than 90% of herbicidal effect and crop phytotoxicity)	5 (90% or more of herbicidal effect and crop phytotoxicity)	4 (70 to less than 90% of herbicidal effect and crop phytotoxicity)	5 (90% or more of herbicidal effect and crop phytotoxicity)	5 (90% or more of herbicidal effect and crop phytotoxicity)	5 (90% or more of herbicidal effect and crop phytotoxicity)
Cn1ncc(C(=O)c2ccc(C(F)(F)F)n(-c3ccc(OC(F)(F)F)cc3)c2=O)c1O [IV-67]	5 (90% or more of herbicidal effect and crop phytotoxicity)	4 (70 to less than 90% of herbicidal effect and crop phytotoxicity)	5 (90% or more of herbicidal effect and crop phytotoxicity)	4 (70 to less than 90% of herbicidal effect and crop phytotoxicity)	5 (90% or more of herbicidal effect and crop phytotoxicity)	5 (90% or more of herbicidal effect and crop phytotoxicity)	5 (90% or more of herbicidal effect and crop phytotoxicity)
Cn1ncc(C(=O)c2ccc(C(F)(F)F)n(-c3cccc(S(C)(=O)=O)c3)c2=O)c1O [IV-74]	5 (90% or more of herbicidal effect and crop phytotoxicity)	4 (70 to less than 90% of herbicidal effect and crop phytotoxicity)	5 (90% or more of herbicidal effect and crop phytotoxicity)	4 (70 to less than 90% of herbicidal effect and crop phytotoxicity)	5 (90% or more of herbicidal effect and crop phytotoxicity)	4 (70 to less than 90% of herbicidal effect and crop phytotoxicity)	4 (70 to less than 90% of herbicidal effect and crop phytotoxicity)
COc1ccc(-n2c(C(F)(F)F)ccc(C(=O)c3cnn(C)c3O)c2=O)cc1OC [IV-77]	5 (90% or more of herbicidal effect and crop phytotoxicity)	5 (90% or more of herbicidal effect and crop phytotoxicity)	5 (90% or more of herbicidal effect and crop phytotoxicity)	3 (50 to less than 70% of herbicidal effect and crop phytotoxicity)	5 (90% or more of herbicidal effect and crop phytotoxicity)	5 (90% or more of herbicidal effect and crop phytotoxicity)	5 (90% or more of herbicidal effect and crop phytotoxicity)
CCCS(=O)(=O)Oc1c(C(=O)c2ccc(C(F)(F)F)n(-c3ccc4c(c3)OCO4)c2=O)cnn1C(C)C [IV-100]	4 (70 to less than 90% of herbicidal effect and crop phytotoxicity)	5 (90% or more of herbicidal effect and crop phytotoxicity)	5 (90% or more of herbicidal effect and crop phytotoxicity)	5 (90% or more of herbicidal effect and crop phytotoxicity)	5 (90% or more of herbicidal effect and crop phytotoxicity)	5 (90% or more of herbicidal effect and crop phytotoxicity)	5 (90% or more of herbicidal effect and crop phytotoxicity)
